# Patent US5298652A, “N-substituted glycines, inhibitors of phospholipase A2” (Hoffmann-La Roche Inc., priority 1992, dated 1994)
# Assays:
# [1] = test system: TPA-induced mouse ear edema; experiment: TPA induced mouse ear edema test; assay type: in vivo, male CD-1 mice; conditions: 1 mg topical; for % Inhib of TPA Mouse Ear Edema (1 mg): 30 minutes prior to TPA, ear punch weight at 6 hours; for % Inhib of Myeloperoxidase Mouse Ear Edema (1 mg): MPO activity in ear punches 6 hours after TPA
# Method: TPA Induced Mouse Ear Edema Test
# The TPA-induced mouse ear edema test, a model of irritant-induced contact dermatitis is described in the following reference: J. M. Young, B. M. Wagner and D. A. Spires, J. Invest. Dermatology 80, 48-52 (1983).
# For this test, 10 μl of 12-O-tetradecanoylphorbol-13-acetate (TPA), dissolved in a vehicle of pyridine: water: diethylether (20:5:75), was applied to the outside of the right ear of 3-4 week old male CD-1 mice (8 animals per group). The test compounds were dissolved in the same vehicle and 10 μl was applied to the inside of the same ear 30 minutes prior to the application of TPA. Ear punches (6 mm) were removed at 6 hours after TPA application, weighed and assayed for myeloperoxidase (MPO) activity as described in the following reference: P. P. Bradley, D. A. Priebat, R. D. Christensen and G. Rothstein, J. Invest. Dermatology 78, 206-209 (1982). The wet weight of the ear biopsy punches is a measure of the ear edema and the level of MPO activity in the ear punches is an indicator of neutrophil infiltration. The data are expressed as percent inhibition in drug-treatedanimals relative to the control group. Table II sets forth the percentage inhibition of edema by representative compounds of the invention in this test. Table III sets forth the percentage inhibition of myeloperoxidase by representative compounds of the invention in this test.
# [2] = biological target: T1, HSF-PLA2 (extracellular PLA2 obtained from human synovial fluid) (Homo sapiens, UniProt P14555); experiment: Assay for inhibition of HSF-PLA2 in vitro; assay type: biochemical; conditions: 10 μM test compound; read-out: % Inhib of HSF-PLA2
# T1 construct: extracellular enzyme obtained from human synovial fluid; from tissue; host or cells: human synovial fluid (pooled)
# T1 sequence (P14555 21-144): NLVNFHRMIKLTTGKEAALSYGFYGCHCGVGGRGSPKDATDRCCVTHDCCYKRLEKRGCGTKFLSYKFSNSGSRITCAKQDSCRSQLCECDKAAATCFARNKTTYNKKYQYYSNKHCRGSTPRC
# Method: Assay for Inhibition of HSF-PLA2 In Vitro
# The PLA2 used in this test is the extracellular enzyme obtained from human synovial fluid (HSF-PLA2).
# The assay for HSF-PLA2 activity was a modification of the described method [Franson R., Dobrow R., Weiss, J., Elsbach P., and Weglick W. B., J. Lipid Res., 19, 18-23 (1978)] which was conducted using [1-^14 C]-oleate-labelled E. coli substrate in excess at a final concentration of 20,000 dpm/ml. This was equivalent to 18.2 mM of cell membrane phospholipid phosphorus and 2×10^9 autoclaved E. coli/ml. The optimal conditions which were developed for the assay of HSF-PLA2 inhibitors are summarized as follows. A total volume of 0.5 ml of reaction mixture typically had the following final composition: substrate (20,000 dpm/ml); enzyme (0.1% HSF, v/v); 2 mM CaCl2; 150 mM Na^+; 50 mM sodium HEPES buffer, pH 7.3; and 1% dimethyl sulfoxide (DMSO, used to solubilize test inhibitors) in the presence or absence of inhibitor. The reaction was initiated by the addition of HSF-PLA2 and duplicate samples of the mixture were incubated in 13×100 mm glass tubes with shaking for 30 minutes at 37° C. The reaction was terminated by the addition of 2.5 ml of chloroform-methanol (1 to 1.5, v/v). The extraction of lipids from the stopped reaction mixture was conducted by the further additions of 0.5 ml of chloroform and 1 ml of water with mixing. After centrifuging, the lower chloroform phase was transferred to smaller glass tubes and the solvent was evaporated to dryness with a nitrogen stream. The extracted lipid residue was redissolved in […] of a solution containing carrier oleic acid (0.2 mg/ml) in chloroform-methanol [9 to 1, v/v]). The whole lipid extract was applied to a preactivated (30 minutes at 110° C.) silica gel-impregnated glass fiber thin layer chromatography sheet (ITLC type SG sheet from Gelman Sciences Inc., Ann Arbor, Mich.) using hexane-acetic acid (100 to 1, v/v) as the developing solvent. This TLC system rapidly (6 minutes) resolved the enzymatically released product, ^14 C-oleic acid, from the unreacted ^14 C-phospholipid substrate. The unsaturated lipids were located on the chromatogram by a brief exposure to iodine vapor. The oleic acid zone (Rf value 0.95) and phospholipid zone (origin) were cut out, chopped into small pieces, shaken with 2 ml of ethanol-water (80 to 20, v/v) and 15 ml of Aquasol and counted for radio-activity. A control incubation of substrate in the absence of HSF-PLA2 was performed in each experiment. The PLA2 activity of the human synovial fluid was corrected for this small control value. […] The specific activity of PLA2 in the pooled human synovial fluid under the optimal assay conditions was 49.2 nmoles [1-^14 C]-oleic aid released hour^-1 mg^-1. The IC50 (μM concentration of test compound that produces 50% inhibition of PLA2 activity) was determined for each test compound.
SMILES,% Inhib of TPA Mouse Ear Edema (1 mg) [1] [%],inhibition at 10 µM [2] [%],% Inhib of Myeloperoxidase Mouse Ear Edema (1 mg) [1] [%]
"O=C(O)CN(CC(=O)O)C(=O)c1cc(OCCCCCCCCCCCCOc2ccccc2)ccc1OCc1ccccc1 [Example 110, N-(Carboxymethyl)-N-[5-[(12-phenoxydodecyl)oxy]-2-(phenylmethoxy)benzoyl]glycine]",57,61,–
CCCCCCCCCCCCCCCCCCOc1ccc(OCCCOc2ccc(O)cc2)c(C(=O)N(CC(=O)O)CC(=O)O)c1 [Example 100],65,77,–
"O=C(O)CN(CC(=O)O)C(=O)C(=O)c1ccc(OCCCCCCCCCCCCOc2ccccc2)cc1 [Example 114, N-(Carboxymethyl)-N-[1,2-dioxo-2-[4-[(12-phenoxydodecyl)oxy]phenyl]ethyl]glycine]",37,35,–
"CCCCCCCCCCCCCCCCCCOc1ccc(OCCCc2ccccc2)c(C(=O)N(CC(=O)O)CC(=O)O)c1 [Example 95, N-(Carboxymethyl)-N-[5-(octadecyloxy)-2-(3-phenylpropoxy)benzoyl]glycine]",55,71,–
"CCCCCCCCCCOc1ccc(OCc2ccccc2)c(C(=O)N(CC(=O)O)CC(=O)O)c1 [Example 91, N-(Carboxymethyl)-N-[5-(decyloxy)-2-(phenylmethoxy)benzoyl]glycine]",59,70,78
"CCCCCCCCCCCCCCCCCCOc1ccc(OCCCOc2ccc(OCc3ccccc3)cc2)c(C(=O)N(CC(=O)O)CC(=O)O)c1 [Example 99, N-(Carboxymethyl)-N-[5-(octadecyloxy)-2-[3-[4-(phenylmethoxy)phenoxy]propoxy]benzoyl]glycine]",50,86,–
"CCCCCCCCCCCCCCOc1ccc(OCc2ccccc2)c(C(=O)N(CC(=O)O)CC(=O)O)c1 [Example 86, N-(Carboxymethyl)-N-[5-(tetradecyloxy)-2-(phenylmethoxy)benzoyl]glycine]",47,70,63
"O=C(O)CN(CC(=O)O)C(=O)c1cc(OCCCCCCOc2ccc(-c3ccccc3)cc2)ccc1OCc1ccccc1 [Example 105, N-[5-[[6-([1,1'-biphenyl]-4-yloxy)hexyl]oxy]-2-(phenylmethoxy)benzoyl]-N-(carboxymethyl)glycine]",67,38,–
